The structures appear in SMILES notation. Structures can show the parent of a compound that is named as a salt. Bounds are passed on as bounds.

For one test, the target named is T1, human p38 kinase alpha (Homo sapiens, UniProt Q16539).
T1 construct: GST (N, cleaved yes); made in house; host or cells: E. coli DH10B
T1 sequence (Q16539 whole entry): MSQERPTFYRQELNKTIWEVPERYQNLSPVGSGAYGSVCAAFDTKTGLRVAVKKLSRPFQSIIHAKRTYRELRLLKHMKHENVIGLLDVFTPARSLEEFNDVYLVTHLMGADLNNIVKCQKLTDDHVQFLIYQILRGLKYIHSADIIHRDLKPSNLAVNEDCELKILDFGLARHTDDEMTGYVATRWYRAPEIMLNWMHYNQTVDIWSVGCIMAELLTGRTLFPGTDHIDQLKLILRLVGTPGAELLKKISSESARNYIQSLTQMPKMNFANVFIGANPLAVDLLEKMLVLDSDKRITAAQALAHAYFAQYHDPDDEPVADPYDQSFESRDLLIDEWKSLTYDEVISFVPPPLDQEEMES
Briefly: p38 kinase in vitro assay, phosphorylation of biotinylated PHAS-I with 32P-ATP. The class given is biochemical. To be noted: @ 1.0 uM.
With `O=C(NCCc1[nH]nc(-c2ccc(F)cc2)c1-c1ccncc1)Nc1ccc(F)cc1` [Example B-1034], the “P38 alpha kinase % inhib @ conc. (uM)” value is recorded as 66.0% @.
As for `CC(=O)OC(C)(C)C(=O)NCCCc1[nH]nc(-c2ccc(F)cc2)c1-c1ccncc1` [Example B-1163], the “P38 alpha kinase % inhib @ conc. (uM)” value is given as 74.0% @.
On to `O=C(NCCc1ccccc1)NCCc1[nH]nc(-c2ccc(F)cc2)c1-c1ccncc1` [Example B-1044], for which the “P38 alpha kinase % inhib @ conc. (uM)” value is 94.0% @.
On the same count and under the same terms, under `CCCOC(=O)NCCc1[nH]nc(-c2ccc(F)cc2)c1-c1ccncc1` [Example B-1053] stands 78.0% @.
As for `O=C(NCCCc1[nH]nc(-c2ccc(F)cc2)c1-c1ccncc1)Nc1ccccc1` [Example B-1220], the “P38 alpha kinase % inhib @ conc.” value turned out to be 81.0% @.
Still for that read-out and setting: for `CN(C)C(=O)NCCCc1[nH]nc(-c2ccc(F)cc2)c1-c1ccncc1` [Example B-1212] the value was 90.0% @.
As for `O=C(NCCc1[nH]nc(-c2ccc(F)cc2)c1-c1ccncc1)NCc1ccccc1` [Example B-1031], the “P38 alpha kinase % inhib @ conc. (uM)” value stood at 69.0% @.
Same read-out and setting: under `O=S(=O)(NCCc1[nH]nc(-c2ccc(F)cc2)c1-c1ccncc1)c1cccs1` [Example B-1026] stands 87.0% @.
For the compound `O=S(=O)(NCc1[nH]nc(-c2ccc(F)cc2)c1-c1ccncc1)c1cccc2cccnc12` [Example B-0116], the “P38 alpha kinase % inhib @ conc.” value stood at 73.0% @.
Turning to `CC(C)S(=O)(=O)NCCCc1[nH]nc(-c2ccc(F)cc2)c1-c1ccncc1` [Example B-1192], the “P38 alpha kinase % inhib @ conc. (uM)” value is on record as 84.0% @.
Turning to `O=S(=O)(NCCc1[nH]nc(-c2ccc(F)cc2)c1-c1ccncc1)C(F)(F)F` [Example B-1019], the “P38 alpha kinase % inhib @ conc. (uM)” value is 82.0% @.

The test is the same for the next values; noted with them: @ 1.0 uM; read-out: P38 alpha kinase % inhib @ conc.
Take `O=C(NCc1[nH]nc(-c2ccc(F)cc2)c1-c1ccncc1)c1ccc([N+](=O)[O-])cc1` [Example B-0022]: the inhibition at 1 µM worked out at 69%.
Same read-out and setting: under `CCCCCCC(=O)NCc1[nH]nc(-c2ccc(F)cc2)c1-c1ccncc1` [Example B-0015] stands 82%.

Still in this test, the particulars now being: @ 10.0 uM.
In the case of `Cc1c(-c2ccncc2)c(-c2ccc(F)cc2)nn1CC(=O)NC1CCN(CCc2c[nH]c3ccccc23)CC1` [Example B-2355], the “P38 alpha kinase % inhib @ conc.” value came out at 84.0% @.
With `COc1cc(NC(=O)NCCc2[nH]nc(-c3ccc(F)cc3)c2-c2ccncc2)cc(OC)c1OC` [Example B-0979], the “P38 alpha kinase % inhib @ conc. (uM)” value came out at 56.0% @.
In the case of `Cc1c(-c2ccncc2)c(-c2ccc(F)cc2)nn1CC(=O)N1Cc2ccsc2CC1c1ccc(Cl)cc1` (stereo not drawn) [Example B-2410], the “P38 alpha kinase IC50, uM or % inhib @ conc. (uM): % inhib” value (“P38 alpha kinase IC50 … % inhib” below) is 33.0% @.
As to `CCc1cccc(CC)c1NC(=O)Cn1nc(-c2ccc(F)cc2)c(-c2ccncc2)c1C` [Example B-2420], the “P38 alpha kinase IC50 … % inhib” value was 70.0% @.
For the compound `COC(=O)C(Cc1ccc([N+](=O)[O-])cc1)NC(=O)Cn1nc(-c2ccc(F)cc2)c(-c2ccncc2)c1C` (stereo not drawn) [Example B-2349], the “P38 alpha kinase % inhib @ conc.” value was found to be 75.0% @.
For `CCCCCCCOc1ccc(NC(=O)Cn2nc(-c3ccc(F)cc3)c(-c3ccncc3)c2C)cc1` [Example B-2452], the “P38 alpha kinase IC50 … % inhib” value stood at 89.0% @.
Same read-out and setting: for `Cc1c(-c2ccncc2)c(-c2ccc(F)cc2)nn1CC(=O)N(C)CC(N)=O` [Example B-2400] the value was 60.0% @.

Still in this test, the particulars now being: Table 8; 1% DMSO; read-out: p38α Kinase Assay IC50.
`Clc1ccc(-c2[nH]nc(NC3CCNCC3)c2-c2ccncc2)cc1` [Example A-332, N-[5-(4-chlorophenyl)-4-(4-pyridinyl)-3H-pyrazol-3-yl]-4-piperidineamine, trihydrochloride, monohydrate]: the IC50 was determined as 40 nM.

The same test, now with this note: in vitro P38-alpha kinase inhibition; read-out: P38 alpha kinase IC50.
As to `CC(NC(=O)NCCc1ccccc1)c1[nH]nc(-c2ccc(F)cc2)c1-c1ccncc1` (stereo not drawn) [Example B-0593], the IC50 is 1220 nM.
Still for that read-out and setting: for `CC(NC(=O)c1cc2ccccc2s1)c1[nH]nc(-c2ccc(F)cc2)c1-c1ccncc1` (stereo not drawn) [Example B-0673] the value was 8540 nM; for `CC(Oc1ccccc1)C(=O)NC(Cc1ccccc1)c1[nH]nc(-c2ccc(F)cc2)c1-c1ccncc1` (stereo not drawn) [Example B-0857], 6250 nM.
As for `CC(NS(=O)(=O)c1ccc(CNC(=O)c2ccccc2)s1)c1[nH]nc(-c2ccc(F)cc2)c1-c1ccncc1` (stereo not drawn) [Example B-0657], the IC50 is 170 nM.
Consider `Cc1ccc(F)cc1S(=O)(=O)NCCc1[nH]nc(-c2ccc(F)cc2)c1-c1ccncc1` [Example B-1079], for which the IC50 was < 100 nM.
Still for that read-out and setting: under `O=C(NCCc1[nH]nc(-c2ccc(F)cc2)c1-c1ccncc1)c1ccc(F)cc1F` [Example B-1152] stands 730 nM; under `O=S(=O)(NC(Cc1ccccc1)c1[nH]nc(-c2ccc(F)cc2)c1-c1ccncc1)c1ccc(F)cc1F` (stereo not drawn) [Example B-0712], 2900 nM.
Regarding `CC(NC(=O)c1c(Cl)cccc1Cl)c1[nH]nc(-c2ccc(F)cc2)c1-c1ccncc1` (stereo not drawn) [Example B-0696], the IC50 worked out at 85 nM.
For `Cc1ccc(C(=O)NCCc2[nH]nc(-c3ccc(F)cc3)c2-c2ccncc2)cc1` [Example B-1122], the IC50 came to 1840 nM.
The same measure, in the same setting: under `COc1cccc(CC(=O)NC(Cc2ccccc2)c2[nH]nc(-c3ccc(F)cc3)c2-c2ccncc2)c1` (stereo not drawn) [Example B-0817] stands 3070 nM.
Still for that read-out and setting: for `CC(NS(=O)(=O)c1ccc(-c2ccon2)s1)c1[nH]nc(-c2ccc(F)cc2)c1-c1ccncc1` (stereo not drawn) [Example B-0662] the value was < 100 nM; for `Cc1cccc(C)c1NC(=O)NC(Cc1ccccc1)c1[nH]nc(-c2ccc(F)cc2)c1-c1ccncc1` (stereo not drawn) [Example B-0733], 32000 nM.
Regarding `O=S(=O)(NCCc1[nH]nc(-c2ccc(F)cc2)c1-c1ccncc1)c1ccccc1Br` [Example B-1082], the IC50 is < 100 nM.
Same read-out and setting: under `O=S(=O)(NCCc1[nH]nc(-c2ccc(F)cc2)c1-c1ccncc1)c1cccc2ccccc12` [Example B-1069] stands 220 nM.
Still for that read-out and setting: for `O=S(=O)(NCCc1[nH]nc(-c2ccc(F)cc2)c1-c1ccncc1)c1ccccc1Cl` [Example B-1091] the value was < 100 nM; for `Cn1cnc(S(=O)(=O)NCCc2[nH]nc(-c3ccc(F)cc3)c2-c2ccncc2)c1` [Example B-1114], 69 nM.
On the same count and under the same terms, under `CC(C)OC(=O)NC(C)c1[nH]nc(-c2ccc(F)cc2)c1-c1ccncc1` (stereo not drawn) [Example B-0606] stands 170 nM; under `CC(C)c1ccc(S(=O)(=O)NC(C)c2[nH]nc(-c3ccc(F)cc3)c2-c2ccncc2)cc1` (stereo not drawn) [Example B-0623], 120 nM; under `Cc1ccc(S(=O)(=O)NC(Cc2ccccc2)c2[nH]nc(-c3ccc(F)cc3)c2-c2ccncc2)cc1` (stereo not drawn) [Example B-0721], 3800 nM.
`CC(NC(=O)c1cccc(F)c1F)c1[nH]nc(-c2ccc(F)cc2)c1-c1ccncc1` (stereo not drawn) [Example B-0695]: the IC50 was found to be 230 nM.
The same measure, in the same setting: under `C=CCNC(=O)NC(Cc1ccccc1)c1[nH]nc(-c2ccc(F)cc2)c1-c1ccncc1` (stereo not drawn) [Example B-0779] stands 500 nM.
On the same count and under the same terms, under `CCN(CC)C(=O)NC(Cc1ccccc1)c1[nH]nc(-c2ccc(F)cc2)c1-c1ccncc1` (stereo not drawn) [Example B-0787] stands 1500 nM.

Still in this test, the particulars now being: in vitro P38-alpha kinase; read-out: P38 alpha kinase IC50.
Consider `O=S(=O)(NCCCc1[nH]nc(-c2ccc(F)cc2)c1-c1ccncc1)c1cc(Cl)c(Cl)s1` [Example B-1257], for which the IC50 turned out to be 1480 nM.
With `CC(C)c1ccc(S(=O)(=O)NCCCc2[nH]nc(-c3ccc(F)cc3)c2-c2ccncc2)cc1` [Example B-1251], the IC50 worked out at 410 nM.
The same measure, in the same setting: under `O=S(=O)(NCCCc1[nH]nc(-c2ccc(F)cc2)c1-c1ccncc1)c1ccc(Br)cc1` [Example B-1237] stands 220 nM; under `Cc1noc(C)c1C(=O)NCCCc1[nH]nc(-c2ccc(F)cc2)c1-c1ccncc1` [Example B-1358], 160 nM; under `Cc1ccccc1S(=O)(=O)N1CCC(c2[nH]nc(-c3ccc(F)cc3)c2-c2ccncc2)CC1` [Example B-1459], 670 nM.
Still for that read-out and setting: for `O=C(NCCCc1[nH]nc(-c2ccc(F)cc2)c1-c1ccncc1)c1ccc(C(F)(F)F)cc1F` [Example B-1337] the value was 400 nM; for `Cc1c(-c2ccncc2)c(-c2ccc(F)cc2)nn1CC(=O)NCc1ccc(C(C)(C)C)cc1` [Example B-2290], 2370 nM; for `O=C(c1ccc(F)cc1F)N1CCC(c2[nH]nc(-c3ccc(F)cc3)c2-c2ccncc2)CC1` [Example B-1412], 97 nM.
The same measure, in the same setting: for `O=S(=O)(c1cccc2cnccc12)N1CCC(c2[nH]nc(-c3ccc(F)cc3)c2-c2ccncc2)CC1` [Example B-1443] the value was 14 nM; for `O=C(NCCCc1[nH]nc(-c2ccc(F)cc2)c1-c1ccncc1)c1ccc(Cl)cc1` [Example B-1322], 120 nM.
Regarding `Cc1cccc(C(=O)N2CCC(c3[nH]nc(-c4ccc(F)cc4)c3-c3ccncc3)CC2)c1` [Example B-1395], the IC50 amounted to 1480 nM.
Consider `O=C(NCCCc1[nH]nc(-c2ccc(F)cc2)c1-c1ccncc1)c1cccc(C(F)(F)F)c1` [Example B-1324], for which the IC50 was determined as 160 nM.
Regarding `CS(=O)(=O)c1ccc(S(=O)(=O)N2CCC(c3[nH]nc(-c4ccc(F)cc4)c3-c3ccncc3)CC2)cc1` [Example B-1476], the IC50 was found to be 47 nM.
Still for that read-out and setting: under `Cc1c(-c2ccncc2)c(-c2ccc(F)cc2)nn1CC(=O)NCc1ccco1` [Example B-2282] stands 910 nM; under `O=S(=O)(NCCCc1[nH]nc(-c2ccc(F)cc2)c1-c1ccncc1)c1ccc2ccccc2c1` [Example B-1280], 39 nM; under `CC(=O)Nc1ccc(S(=O)(=O)NCCCc2[nH]nc(-c3ccc(F)cc3)c2-c2ccncc2)cc1` [Example B-1236], 100 nM.
Still for that read-out and setting: for `O=C(c1cccc(F)c1F)N1CCC(c2[nH]nc(-c3ccc(F)cc3)c2-c2ccncc2)CC1` [Example B-1411] the value was < 100 nM; for `N#Cc1ccc(C(=O)N2CCC(c3[nH]nc(-c4ccc(F)cc4)c3-c3ccncc3)CC2)cc1` [Example B-1392], 59 nM; for `O=S(=O)(c1cccc2nonc12)N1CCC(c2[nH]nc(-c3ccc(F)cc3)c2-c2ccncc2)CC1` [Example B-1436], 1000 nM.
Still for that read-out and setting: under `Cc1c(-c2ccncc2)c(-c2ccc(F)cc2)nn1CC(=O)NCCCCN1CCCC1` [Example B-2288] stands 6510 nM.

(Values after patent publication US6979686B1, “Substituted pyrazoles as p38 kinase inhibitors” (Pharmacia Corporation, priority 2001, dated 2005).)
